Reference: US20170007669A1, “PEPTIDE-MEDIATED DELIVERY OF ACTIVE AGENTS ACROSS THE BLOOD-BRAIN BARRIER” (Mayo Foundation for Medical Education and Research, priority 2015, published 2017)
Where no end group is shown, it is not given here.

Legend:
[1] = Tissue distribution of Evans Blue (EB) after delivery via K16ApoE; type: in vivo, mice; conditions: tissues 1 h after EB
Experimental: Mice were injected with various amounts of K16ApoE peptide (0 μg, 150 μg, 100 μg, 75 μg, 50 μg, 25 and μg) first. EB (40 μL of a 2% solution was injected 10 min after injection of the peptide. Tissues (brains, lungs, heart, liver, spleen and kidney) were collected 1 h after EB delivery. All injections were through the femoral vein.

[2] = Residence time of EB dye in brain following transportation by the peptide; type: in vivo, mice; conditions: EB 10 min after 300 μg K16ApoE
Experimental: A series of mice were administered 300 μg of K16ApoE followed by administration of ˜40 μL 2% EB 10 min after administration of the peptide. As a control, only EB was injected, cardiac perfusion was done 6 hours after EB injection, followed by collection of brain. For all other mice, perfusion and collection of brains was performed 15 min, 30 min, 1 h, 2 h, 4 h, 6 h, 12, h, and 24 h following administration of EB.

[3] = tested on: blood-brain barrier; experiment: Transportation of Evan's Blue (EB) dye across the BBB after IV injection of peptide; type: in vivo, mouse; conditions: for EB dye in brain: EB 10 min later, brain collected 1 h after EB
Experimental: To explore whether K16ApoE (SEQ. ID. NO: 42) compromises integrity of the BBB, the peptide was first injected by IV followed by injection of Evan's Blue (EB; a routinely used small molecule blue dye with a molecular weight of 960.81) by IV into the femoral vein of a mouse. Cardiac perfusion was performed and the brains of the mice were removed and evaluated approximately 2 hours following injection of the dye. As controls, a peptide consisting of 16 lysine residues (K16) and a 20-amino acid peptide comprising the LDLR-binding domain of ApoE (ApoE-FITC; (SEQ ID NO:13)), were used. The particulars of each administration are as follows: • 1) 67.5 nanomoles of K16 injected first, then ˜40 μL 2% EB was injected. • 2) Same as 1 but K16 and EB mixed prior to injection. • 3) 67.5 nanomoles of ApoE-FITC injected first, then ˜40 μL 2% EB was injected. • 4) Same as 3 but ApoE-FITC peptide and EB was mixed prior to injection. • 5) 67.5 nanomoles of K16ApoE injected first, then ˜40 μL 2% EB was injected. • 6) Same as 5 but K16ApoE peptide and EB was mixed first before injection.
Using the method described in Example 1, various amounts of K16ApoE (SEQ. ID. NO: 42) was injected followed by administration of ˜40 μL 2% EB. The particulars of each administration are as follows: • 1) EB alone. • 2) 50 μg (11.25 nanomoles) K16ApoE first, followed by administration of EB. • 3) 100 μg (22.5 nanomoles) K16ApoE first, followed by administration of EB. • 4) 200 μg (45 nanomoles) K16ApoE first, followed by administration of EB. • 5) 300 μg (67.5 nanomoles) K16ApoE first, followed by administration of EB.
˜40 μL of 2% EB was injected 10 min after injection of various amounts of K16ApoE (75 μg, 100 μg, 150 μg, 250 μg, and 300 μg) or K26ApoE (25 μg, 50 μg, 75 μg, 100 μg, 125 μg, and 150 μg). K26ApoE (SEQ ID NO: 139) having the sequence:
Brain tissue as was collected 1 h following EB injection. All injections were at the femoral vein.

Cc1cc(-c2ccc(/N=N/c3ccc4c(S(=O)(=O)[O-])cc(S(=O)(=O)[O-])c(N)c4c3O)c(C)c2)ccc1/N=N/c1ccc2c(S(=O)(=O)[O-])cc(S(=O)(=O)[O-])c(N)c2c1O.[Na+].[Na+].[Na+].[Na+] [EB, Evan's Blue]
EB stain in organs ([1]; EB injected without K16ApoE): Kidney, spleen, liver and heart show some EB-stain | time post EB administration from which dye is observed in brain [2]: 15 min | time EB is retained well in the brain ([2]; dye remains intense): up to 4 h | time EB is probably retained in the brain (less intense dye) ([2]; longest time point tested): up to 24 h

KKKKKKKKKKKKKKKKKKKKKKKKKK- LRVRLASHLRKLRKRLLRDA (KKKKKKKKKKKKKKKKKKKKKKKKKKLRVRLASHLRKLRKRLLRDA) [K26ApoE]
EB dye in brain ([3]; 25 μg peptide): no dye was observed | EB dye in brain ([3]; 50 μg peptide): only a small amount of dye present | EB dye in brain ([3]; 75 μg peptide): Increasing EB is observed | effectiveness in delivering EB to the brain relative to K16ApoE ([3]; comparison of peptide amounts needed): approximately two-fold

KKKKKKKKKKKKKKKKLRVRLASHLRKLRKRLLRDA [K16ApoE, KKKKKKKKKKKKKKKKLRVRLASHLRKLRKRLLRDA]
EB in brain ([1]; 0-150 μg K16ApoE, EB 10 min later): EB goes into brain only after injection of the peptide | EB stain in organs ([1]; EB injected after K16ApoE injection): Kidney, spleen and liver are stained with EB
